According to paper PMC10215740 (Antibiotics, 2023):
Values joined by “and” are separate entries in the source; they are usually repeats but may differ in a detail not shown here. Identical values can stand only once.

Experiments:
[1] = Time with concentration above MIC targets (T>MIC, %T>MIC) in plasma and spinal tissues, microdialysis porcine model; type: in vivo, pigs (Danish Landrace breed)
From the text: (§1) Eight female pigs (Danish Landrace breed, weight 78–82 kg) were included. In general anaesthesia, microdialysis catheters were placed in the third cervical (C3) vertebral cancellous bone, the C3-C4 intervertebral disc, paravertebral muscle, and adjacent subcutaneous tissue. Plasma samples were obtained as a reference. Abiding by the recommendations of replacement, reduction, and refinement (the 3 Rs) when conducting animal studies, the data sampled in extrathecal spinal tissues in the present study are derived from animals where lower extremity data were reported previously. […] The dose and mode of administration used were in accordance with the clinical practice at our institution. Sampling was conducted for 8 h.
(§2) (Figure 3). The microdialysis catheters used were CMA 70 (membrane length 10 and 20 mm, molecular mass cut of 20 kDa; M Dialysis AB, Stockholm, Sweden). Through an anterolateral approach, the C2, C3, and C4 vertebrae were exposed. Using a 2 mm drill, a 25 mm drill hole was made into the C3 vertebra in which a 20 mm microdialysis catheter was placed. Afterward, with aid from a splitable microdialysis introducer (M Dialysis AB, Stockholm, Sweden), a 10 mm microdialysis catheter was positioned in the C3-C4 intervertebral disc, and a 20 mm microdialysis catheter was positioned in both the exposed paravertebral muscle and adjacent subcutaneous tissue. Correct positioning of the microdialysis catheters in the vertebra and the intervertebral disc was verified by fluoroscopy. The catheters were connected to precision pumps (CMA 107; M Dialysis AB, Stockholm, Sweden) and perfused with 0.9% NaCl solution at a flow rate of 1 μL/min.
(§3) After catheter placement, microdialysis sampling was initiated with a tissue-equilibration period of 20 min prior to the antibiotic intravenous administration. […] Microdialysates were collected at 30 min intervals for the first 4 h, and at 60 min intervals for the last 4 h, resulting in a total of 12 samples during an 8-h dosing interval. At the midpoint of each sampling interval, blood samples were collected from a central venous catheter for reference. The blood samples were stored at 5 °C for a maximum of 6 h before being centrifuged (room temperature, 3000 g, 10 min), and plasma aliquots were made. […] The recovery sample was later used for individual catheter calibration and calculation of absolute tissue concentrations. All collected samples were stored at –80 °C until the chemical analyses were performed; microdialysate analyses were performed at the Department of Forensic Medicine, Aarhus University, Denmark, and plasma aliquot analyses were performed at the Department of Clinical Biochemistry, Aarhus University Hospital, Aarhus, Denmark.
(§4) The free drug concentration of meropenem in plasma was quantified using ultra-high performance liquid chromatography (UHPLC).
(§5) The area under the concentration–time curves from zero to the last measured value (AUC0-8h) was calculated using the trapezoidal rule. The Cmax was calculated as the maximum concentration of all the recorded concentrations, and the Tmax was calculated as the time to achieve Cmax. As a measure of tissue penetration, the ratio of tissue AUC to plasma AUC (AUCtissue/AUCplasma) was calculated. A general comparison of the T>MIC and the pharmacokinetic parameters was conducted using repeated measurements of the analysis of variance (ANOVA), followed by pairwise comparisons made by linear regression. Because of a small sample size, it was necessary to conduct a correction for the degrees of freedom by the Kenward–Roger approximation method. Using the visual diagnosis of residuals, fitted values and estimates of random-effects model assumptions were tested. A p-value of less than 0.05 was considered significant.

[2] = Plasma and spinal tissue pharmacokinetics by microdialysis after single-dose co-administered i.v. meropenem and vancomycin; details: free drug, single i.v. 1000 mg meropenem + 1000 mg vancomycin co-administered, mean (95%CI)
From the text: as §1, §2, §3, §4, §5

[3] = intervertebral disc, microdialysis, pigs, one disc catheter malfunctioned
[4] = paravertebral muscle, microdialysis, pigs n = 8
[5] = subcutaneous tissue, microdialysis, pigs n = 8
[6] = vertebral cancellous bone, microdialysis, pigs n = 8

## C[C@@H](O)[C@H]1C(=O)N2C(C(=O)O)=C(S[C@@H]3CN[C@H](C(=O)N(C)C)C3)[C@H](C)[C@H]12 [Meropenem, meropenem]
[1]; meropenem MIC 0.125 μg/mL (low), C3-C4 intervertebral disc, microdialysis, UHPLC-MS/MS, pigs, one disc catheter malfunctioned, single i.v. 1000 mg co-administered with vancomycin, mean
  Mean T>MIC (min): 366 (335; 396) min
[1]; meropenem MIC 0.125 μg/mL (low), C3 vertebral cancellous bone, microdialysis, UHPLC-MS/MS, pigs n = 8, single i.v. 1000 mg co-administered with vancomycin, mean
  Mean T>MIC (min): 244 (215; 272) min
[1]; meropenem MIC 0.125 μg/mL (low), intervertebral disc, microdialysis, percentage of dosing interval of 450 min, pigs, single i.v. 1000 mg
  Mean %T>MIC: 81 (74; 88) %
[1]; meropenem MIC 0.125 μg/mL (low), paravertebral muscle, microdialysis, UHPLC-MS/MS, pigs n = 8, single i.v. 1000 mg co-administered with vancomycin, mean
  Mean T>MIC (min): 285 (256; 314) min
[1]; meropenem MIC 0.125 μg/mL (low), paravertebral muscle, microdialysis, percentage of dosing interval of 450 min, pigs n = 8, single i.v. 1000 mg
  Mean %T>MIC: 63 (57; 70) %
[1]; meropenem MIC 0.125 μg/mL (low), plasma, free drug, UHPLC, pigs n = 8, single i.v. 1000 mg over 10 min co-administered with vancomycin 1000 mg, linear interpolation, mean
  Mean T>MIC: 406 min
[1]; meropenem MIC 0.125 μg/mL (low), plasma, percentage of dosing interval of 450 min, pigs n = 8, single i.v. 1000 mg co-administered with vancomycin
  Mean %T>MIC: 90%
[1]; meropenem MIC 0.125 μg/mL (low), subcutaneous tissue, microdialysis, UHPLC-MS/MS, pigs n = 8, single i.v. 1000 mg co-administered with vancomycin, mean
  Mean T>MIC (min): 334 (305; 363) min
[1]; meropenem MIC 0.125 μg/mL (low), subcutaneous tissue, microdialysis, percentage of dosing interval of 450 min, pigs n = 8, single i.v. 1000 mg
  Mean %T>MIC: 74 (68; 81) %
[1]; meropenem MIC 0.125 μg/mL (low), vertebral cancellous bone, microdialysis, percentage of dosing interval of 450 min, pigs n = 8, single i.v. 1000 mg
  Mean %T>MIC: 54 (48; 61) %
[1]; meropenem low MIC target (0.125 µg/mL), all the investigated compartments, 8-h dosing interval, pigs, single i.v. 1000 mg
  %T>MIC: ≥ 54%
[1]; pig, in vivo
  %T>MIC: 25–36%
  Mean %T>MIC: 36 (33; 40) %
  Mean T>MIC (min): 163 (147; 180) min
[1]; pig, in vivo, iv
  %T>MIC: ≤ 40%
  Mean %T>MIC: 40% and 26 (22; 30) % and 25 (22; 29) % and 35 (31; 39) %
  Mean T>MIC: 181 min
  Mean T>MIC (min): 118 (101; 134) min and 114 (98; 131) min and 158 (141; 175) min
[1]; pig, in vivo, iv, listed as meropenem
  %T>MIC: 25–90%

## CN[C@H](CC(C)C)C(=O)N[C@H]1C(=O)N[C@@H](CC(N)=O)C(=O)N[C@H]2C(=O)N[C@H]3C(=O)N[C@H](C(=O)N[C@H](C(=O)O)c4cc(O)cc(O)c4-c4cc3ccc4O)[C@H](O)c3ccc(c(Cl)c3)Oc3cc2cc(c3O[C@@H]2O[C@H](CO)[C@@H](O)[C@H](O)[C@H]2O[C@H]2C[C@](C)(N)[C@H](O)[C@H](C)O2)Oc2ccc(cc2Cl)[C@H]1O [Vancomycin, vancomycin]
[2]; [3]
  AUC0-8h: 877 (−325; 2079) min μg/mL
  Cmax: 3 (−3; 10) μg/mL
[2]; [4]
  AUC0-8h: 2538 (1379; 3698) min μg/mL
  Cmax: 11 (5; 17) μg/mL
[2]; plasma, pigs n = 8
  Cmax: 35 (29; 41) μg/mL
[2]; [5]
  AUC0-8h: 3767 (2608; 4927) min μg/mL
  Cmax: 17 (11; 23) μg/mL
[2]; [6]
  AUC0-8h: 1698 (539; 2858) min μg/mL
  Cmax: 6 (0.4; 12) μg/mL
[1]; vancomycin MIC 1 μg/mL (low), intervertebral disc, microdialysis, percentage of dosing interval of 450 min, pigs, single i.v. 1000 mg
  Mean %T>MIC: 69%
[1]; vancomycin MIC 1 μg/mL (low), intervertebral disc, microdialysis, pigs, one disc catheter malfunctioned, single i.v. 1000 mg co-administered with meropenem, mean
  Mean T>MIC: 311 min
[1]; vancomycin MIC 1 μg/mL (low), paravertebral muscle, microdialysis, percentage of dosing interval of 450 min, pigs n = 8, single i.v. 1000 mg
  Mean %T>MIC: 96%
[1]; vancomycin MIC 1 μg/mL (low), paravertebral muscle, microdialysis, pigs n = 8, single i.v. 1000 mg co-administered with meropenem, mean
  Mean T>MIC: 433 min
[1]; vancomycin MIC 1 μg/mL (low), plasma, free drug, enzyme immunoassay, pigs n = 8, single i.v. 1000 mg over 100 min co-administered with meropenem 1000 mg, linear interpolation, mean
  Mean T>MIC: 449 min
[1]; vancomycin MIC 1 μg/mL (low), plasma, percentage of dosing interval of 450 min, pigs n = 8, single i.v. 1000 mg
  Mean %T>MIC: 100%
[1]; vancomycin MIC 1 μg/mL (low), subcutaneous tissue, microdialysis, UHPLC-MS/MS, pigs n = 8, single i.v. 1000 mg co-administered with meropenem, mean
  Mean T>MIC: 435 min
[1]; vancomycin MIC 1 μg/mL (low), subcutaneous tissue, microdialysis, percentage of dosing interval of 450 min, pigs n = 8, single i.v. 1000 mg
  Mean %T>MIC: 97%
[1]; vancomycin MIC 1 μg/mL (low), vertebral cancellous bone, microdialysis, percentage of dosing interval of 450 min, pigs n = 8, single i.v. 1000 mg
  Mean %T>MIC: 86%
[1]; vancomycin MIC 1 μg/mL (low), vertebral cancellous bone, microdialysis, pigs n = 8, single i.v. 1000 mg co-administered with meropenem, mean
  Mean T>MIC: 388 min
[1]; vancomycin MIC 4 μg/mL (high), intervertebral disc, microdialysis, percentage of dosing interval of 450 min, pigs, single i.v. 1000 mg
  Mean %T>MIC: 10%
[1]; vancomycin MIC 4 μg/mL (high), intervertebral disc, microdialysis, pigs, one disc catheter malfunctioned, single i.v. 1000 mg co-administered with meropenem, mean
  Mean T>MIC: 45 min
[1]; vancomycin MIC 4 μg/mL (high), paravertebral muscle, microdialysis, pigs n = 8, single i.v. 1000 mg co-administered with meropenem, mean
  Mean T>MIC: 306 min
[1]; vancomycin MIC 4 μg/mL (high), plasma, free drug, pigs n = 8, single i.v. 1000 mg co-administered with meropenem, mean
  Mean T>MIC: 446 min
[1]; vancomycin MIC 4 μg/mL (high), plasma, percentage of dosing interval of 450 min, pigs n = 8, single i.v. 1000 mg
  Mean %T>MIC: 99%
[1]; vancomycin MIC 4 μg/mL (high), subcutaneous tissue, microdialysis, percentage of dosing interval of 450 min, pigs n = 8, single i.v. 1000 mg
  Mean %T>MIC: 81%
[1]; vancomycin MIC 4 μg/mL (high), subcutaneous tissue, microdialysis, pigs n = 8, single i.v. 1000 mg co-administered with meropenem, mean
  Mean T>MIC: 365 min
[1]; vancomycin MIC 4 μg/mL (high), vertebral cancellous bone, microdialysis, percentage of dosing interval of 450 min, pigs n = 8, single i.v. 1000 mg
  Mean %T>MIC: 47%
[1]; vancomycin MIC 4 μg/mL (high), vertebral cancellous bone, microdialysis, pigs n = 8, single i.v. 1000 mg co-administered with meropenem, mean
  Mean T>MIC: 214 min
[1]; vancomycin high MIC target (4 µg/mL), all solid tissue compartments, 8-h dosing interval, pigs, single i.v. 1000 mg
  %T>MIC: ≤ 81%
[1]; vancomycin low MIC target (1 µg/mL), all the investigated compartments, 8-h dosing interval, pigs, single i.v. 1000 mg
  %T>MIC: ≥ 69%
[1]; vancomycin, range across all targeted tissues and plasma and both MIC targets (1 and 4 µg/mL), pigs, single i.v. 1000 mg
  %T>MIC: 10–100%
